# Experimental data reported in patent publication US20110230471A1, “BENZONAPHTYRIDINE COMPOUNDS AS INHIBITORS OF AUTOTAXIN” (MERCK PATENT GESELLSCHAFT MIT BESCHRANKTER HAFTUNG, priority 2008, published 2011).
# Target: T1, recombinant autotaxin (Homo sapiens, UniProt Q13822)
# T1 construct: made in house; host or cells: Hi5 insect cells (baculovirus)
# Experiment: Autotaxin test (enzyme test), Amplex Red
# Format: biochemical
# Settings: Autotaxin inhibition (enzyme test), TABLE 1 (A compounds); substrate LPC 75 μM
# Method: The autotaxin activity is measured indirectly using Amplex Red reagent. Amplex Red is measured here as fluorogenic indicator for the H2O2 formed. In detail, autotaxin converts the substrate lysophosphatidylcholine (LPC) into phosphocholine and lysophosphatidylic acid (LPA). After this reaction, the phosphocholine is reacted with alkaline phosphatase to give inorganic phosphate and choline. In the next step, choline is oxidised by choline oxidase to give betaine, with formation of H2O2. H2O2 reacts with Amplex Red reagent in the presence of peroxidase (horseradish peroxidase) in a 1:1 stoichiometry and forms the highly fluorescent resorufin. The fluorescence is measured in a reaction-dependent kinetic mode in order that fluorescent signals from possible other fluorescent substances which are not involved in the reaction can be corrected out.
# 1.5 μl of a standard solution or of the test substances (substances with the name A(n))in individual concentrations dissolved in 20 mM Hepes pH 7.2 with a maximum of 7.7% of DMSO are pre-incubated together with 10 μl (16 ng) of highly purified recombinant autotaxin in a black microtitre plate provided with 384 wells at 22° C. for 30 min. The reaction is then initiated by addition of 5 μl of L-α-lysophosphatidylcholine (LPC), where the final concentration of LPC is 75 μM. The mixture is incubated at 37° C. for 90 min. After the incubation, Amplex Red reagent, peroxidase (horseradish peroxidase) and choline oxidase is added, and the fluorescence is immediately measured at 612 nm with excitation of 485 nm in a “Tecan Ultra multimode” reader. The activity of autotaxin is calculated indirectly via detection of the H2O2 formed.
# • Microtitre plate: PS microplate, 384 wells, small volume, black Corning, Cat#3677 • Protein: recombinant autotaxin (Baculovirale Hi5 Expression) • Substrate: L-α-lysophosphatidylcholine (chicken egg)); Avanti Polar Lipids # 830071 P • Standard: C14 LPA, Avanti Polar Lipids, Cat# 857120P • Detection reagent: Amplex Red reagent; Invitrogen # A12222; dissolved in 1.923 ml of DMSO peroxidase type VI-A (horseradish) from Sigma # P6782; dissolved in 7.45 ml of test buffer, choline oxidase; Sigma # C5896; dissolved in 2.47 ml of test buffer • Detection reagent mix: 1:100 dilution of Amplex Red reagent in test buffer • Test buffer: 200 mM Tris HCl, Merck, Cat # 1.08219, pH 7.9, 0.1% of BSA, lipid-free, Roche Cat#775835
row,IC50,SMILES
1,> 1000 nM,"CCOc1ncc(Cl)cc1NC(=O)CN1CCc2nc3ccccc3c(C(=O)N3CCOCC3)c2C1 [Compound A52, N-(5-Chloro-2-ethoxypyridin-3-yl)-2-[10-(morpholine-4-carbonyl)-3,4-dihydro-1H-benzo[b][1,6]naphthyridin-2-yl]acetamide]"
2,100 to 1000 nM,"O=C(CN1CCc2nc3ccccc3c(C(=O)N3CCOCC3)c2C1)Nc1ccc(Cl)cc1O [Compound A53, N-(4-Chloro-2-hydroxyphenyl)-2-[10-(morpholine-4-carbonyl)-3,4-dihydro-1H-benzo[b][1,6]naphthyridin-2-yl]acetamide]"
3,100 to 1000 nM,"O=C(CN1CCc2nc3ccccc3c(C(=O)N3CCOCC3)c2C1)Nc1cc(Cl)ccc1OCCO [Compound A54, N-[5-Chloro-2-(2-hydroxyethoxy)phenyl]-2-[10-(morpholine-4-carbonyl)-3,4-dihydro-1H-benzo[b][1,6]naphthyridin-2-yl]acetamide]"
4,> 1000 nM,"CC(C)Oc1ccc(Cl)cc1NC(=O)CN1CCc2nc3ccccc3c(C(=O)N3CCN(CCO)CC3)c2C1 [Compound A60, N-(5-Chloro-2-isopropoxyphenyl)-2-{10-[4-(2-hydroxyethyl)piperazine-1-carbonyl]-3,4-dihydro-1H-benzo[b][1,6]naphthyridin-2-yl}acetamide]"
5,100 to 1000 nM,"O=C(CN1CCc2nc3ccccc3c(C(=O)N3CCN(CCO)CC3)c2C1)Nc1cc(Cl)ccc1OCCO [Compound A61, N-[5-Chloro-2-(2-hydroxyethoxy)phenyl]-2-{10-[4-(2-hydroxyethyl)-piperazine-1-carbonyl]-3,4-dihydro-1H-benzo[b][1,6]naphthyridin-2-yl}-acetamide]"
6,> 1000 nM,"O=C(CN1CCc2nc3ccccc3c(C(=O)N3CCN(CCO)CC3)c2C1)Nc1ccc(N2CCCC2=O)c(Cl)c1 [Compound A64, N-[3-Chloro-4-(2-oxopyrrolidin-1-yl)phenyl]-2-{10-[4-(2-hydroxyethyl)-piperazine-1-carbonyl]-3,4-dihydro-1H-benzo[b][1,6]naphthyridin-2-yl}-acetamide]"
7,> 1000 nM,"O=C(CN1CCc2nc3ccccc3c(C(=O)N3CCN(CCO)CC3)c2C1)Nc1ccc(N2CCOCC2=O)c(Cl)c1 [Compound A65, N-[3-Chloro-4-(3-oxomorpholin-4-yl)phenyl]-2-{10-[4-(2-hydroxyethyl)-piperazine-1-carbonyl]-3,4-dihydro-1H-benzo[b][1,6]naphthyridin-2-yl}-acetamide]"
8,< 100 nM,"COc1ccc(Cl)cc1NC(=O)CN1CCc2nc3ccccc3c(C(=O)N3CCN(CCN4CCCCC4)CC3)c2C1 [Compound A66, N-(5-Chloro-2-methoxyphenyl)-2-{10-[4-(2-piperidin-1-ylethyl)piperazine-1-carbonyl]-3,4-dihydro-1H-benzo[b][1,6]naphthyridin-2-yl}acetamide]"
9,< 100 nM,"COc1ccc(Cl)cc1NC(=O)CN1CCc2nc3ccccc3c(C(=O)N3CCN(CCN(C)C)CC3)c2C1 [Compound A67, N-(5-Chloro-2-methoxyphenyl)-2-{10-[4-(2-dimethylaminoethyl)piperazine-1-carbonyl]-3,4-dihydro-1H-benzo[b][1,6]naphthyridin-2-yl}acetamide]"
10,< 100 nM,"COc1ccc(Cl)cc1NC(=O)CN1CCc2nc3ccccc3c(C(=O)N3CCN(CCN4CCOCC4)CC3)c2C1 [Compound A68, N-(5-Chloro-2-methoxyphenyl)-2-{10-[4-(2-morpholin-4-ylethyl)piperazine-1-carbonyl]-3,4-dihydro-1H-benzo[b][1,6]naphthyridin-2-yl}acetamide]"
11,< 100 nM,"COc1ccc(Br)cc1NC(=O)CN1CCc2nc3ccccc3c(C(=O)N3CCN(CCO)CC3)c2C1 [Compound A69, N-(5-Bromo-2-methoxyphenyl)-2-{10-[4-(2-hydroxyethyl)piperazine-1-carbonyl]-3,4-dihydro-1H-benzo[b][1,6]naphthyridin-2-yl}acetamide]"
12,> 1000 nM,"Cc1ccc(NC(=O)CN2CCc3nc4ccccc4c(C(=O)N4CCN(CCO)CC4)c3C2)cc1Cl [Compound A73, N-(3-Chloro-4-methylphenyl)-2-{10-[4-(2-hydroxyethyl)piperazine-1-carbonyl]-3,4-dihydro-1H-benzo[b][1,6]naphthyridin-2-yl}acetamide]"
13,> 1000 nM,"O=C(CN1CCc2nc3ccccc3c(C(=O)N3CCN(CCO)CC3)c2C1)Nc1ccc(F)c(Cl)c1 [Compound A74, N-(3-Chloro-4-fluorophenyl)-2-{10-[4-(2-hydroxyethyl)piperazine-1-carbonyl]-3,4-dihydro-1H-benzo[b][1,6]naphthyridin-2-yl}acetamide]"
14,100 to 1000 nM,"O=C(CN1CCc2nc3ccccc3c(C(=O)N3CCN(CCO)CC3)c2C1)Nc1cc(Cl)ccc1Cl [Compound A75, N-(2,5-Dichlorophenyl)-2-{10-[4-(2-hydroxyethyl)piperazine-1-carbonyl]-3,4-dihydro-1H-benzo[b][1,6]naphthyridin-2-yl}acetamide]"
15,> 1000 nM,"O=C(CN1CCc2nc3ccccc3c(C(=O)N3CCN(CCO)CC3)c2C1)Nc1ccc(Cl)c(Cl)c1 [Compound A76, N-(3,4-Dichlorophenyl)-2-{10-[4-(2-hydroxyethyl)piperazine-1-carbonyl]-3,4-dihydro-1H-benzo[b][1,6]naphthyridin-2-yl}acetamide]"
16,100 to 1000 nM,"O=C(CN1CCc2nc3ccccc3c(C(=O)N3CCN(CCO)CC3)c2C1)Nc1cc(Cl)ccc1F [Compound A78, N-(5-Chloro-2-fluorophenyl)-2-{10-[4-(2-hydroxyethyl)piperazine-1-carbonyl]-3,4-dihydro-1H-benzo[b][1,6]naphthyridin-2-yl}acetamide]"
17,> 1000 nM,"O=C(CN1CCc2nc3ccccc3c(C(=O)N3CCN(CCO)CC3)c2C1)Nc1cc(Cl)cc2ncoc12 [Compound A79, N-(5-Chlorobenzooxazol-7-yl)-2-{10-[4-(2-hydroxyethyl)piperazine-1-carbonyl]-3,4-dihydro-1H-benzo[b][1,6]naphthyridin-2-yl}acetamide]"
18,100 to 1000 nM,"COc1c(Cl)cc(Cl)cc1NC(=O)CN1CCc2nc3ccccc3c(C(=O)N3CCN(CCO)CC3)c2C1 [Compound A80, N-(3,5-Dichloro-2-methoxyphenyl)-2-{10-[4-(2-hydroxyethyl)piperazine-1-carbonyl]-3,4-dihydro-1H-benzo[b][1,6]naphthyridin-2-yl}acetamide]"
19,100 to 1000 nM,"COc1ccc(Cl)cc1N(C)C(=O)CN1CCc2nc3ccccc3c(C(=O)N3CCOCC3)c2C1 [Compound A87, N-(5-Chloro-2-methoxyphenyl)-N-methyl-2-[10-(morpholine-4-carbonyl)-3,4-dihydro-1H-benzo[b][1,6]naphthyridin-2-yl]acetamide]"

# Same assay, conditions: Autotaxin inhibition (enzyme test), TABLE 2 (B compounds); substrate LPC 75 μM
row,IC50,SMILES
1,> 1000 nM,"CNC(=O)C(NC(=O)CN1CCc2nc3ccccc3c(C(=O)N3CCN(CCO)CC3)c2C1)c1ccc(Cl)cc1 (stereo not drawn) [Compound B2, 2-(4-Chlorophenyl)-2-(2-{10-[4-(2-hydroxyethyl)piperazine-1-carbonyl]-3,4-dihydro-1H-benzo[b][1,6]naphthyridin-2-yl}acetylamino)-N-methylacetamide]"
2,> 1000 nM,"O=C(CN1CCc2nc3ccccc3c(C(=O)N3CCN(CCO)CC3)c2C1)Nc1cc(Cl)ccc1OC(F)(F)F [Compound B4, N-(5-Chloro-2-trifluoromethoxyphenyl)-2-{10-[4-(2-hydroxyethyl)piperazine-1-carbonyl]-3,4-dihydro-1H-benzo[b][1,6]naphthyridin-2-yl}acetamide]"
3,> 1000 nM,"O=C(CN1CCc2nc3ccccc3c(C(=O)N3CCOCC3)c2C1)Nc1cc(Cl)ccc1OC(F)(F)F [Compound B5, N-(5-Chloro-2-trifluoromethoxyphenyl)-2-[10-(morpholine-4-carbonyl)-3,4-dihydro-1H-benzo[b][1,6]naphthyridin-2-yl]acetamide]"
4,> 1000 nM,"COc1ccc(Cl)cc1NCCN1CCc2nc3ccccc3c(C(=O)N3CCN(CCO)CC3)c2C1 [Compound B14, {2-[2-(5-Chloro-2-methoxyphenylamino)ethyl]-1,2,3,4-tetrahydrobenzo-[b][1,6]naphthyridin-10-yl}-[4-(2-hydroxyethyl)piperazin-1-yl]methanone]"
5,> 1000 nM,"CSc1ccc(Cl)cc1NC(=O)CN1CCc2nc3ccccc3c(C(=O)N3CCN(CCO)CC3)c2C1 [Compound B17, N-(5-Chloro-2-methylsulfanylphenyl)-2-{10-[4-(2-hydroxyethyl)piperazine-1-carbonyl]-3,4-dihydro-1H-benzo[b][1,6]naphthyridin-2-yl}acetamide]"
